Key:
[1] = test system: Jurkat NFκB-luciferase cells; assay: Jurkat NFκB-Luciferase Assay; assay type: cell-based; conditions: Homo sapiens; Jurkat NFκB-luciferase cells activated with anti-CD3 antibody (OKT3), 2.5 hrs at 37° C., One-Glo Ex; geometric mean; read-out: DGK NFKb Luciferase EC50;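 note: bioluminescence read-out normalized to DMSO basal activation and to maximum enhancement at 1 µM compound, rising signal indicating stronger T-cell activation through DGKα inhibition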
Description: The activity of compounds was tested in a cell based NFκB reporter assay. Jurkat cells that are stably expressing a luciferase reporter construct under the transcriptional control of a NFκB reporter element were activated with an anti-CD3 antibody and luciferase levels were measured with a bioluminescence readout.
The day after, the excess antibody was washed out five times with 100 ul/well of assay medium (RPMI supplemented with 10% fetal bovine serum) using a Biotek EL406 instrument and leaving 20 µl of residual volume in each well. Jurkat NFκB-luciferase cells (Promega #) were harvested and diluted to 1 million cells/ml in assay medium. Sixty nanoliters of test compound dissolved in DMSO at various concentrations were dispensed into 384-well v-bottom polypropylene plates (Greiner) using a Labcyte Echo instrument. Thirty microliters of medium containing the Jurkat NFκB-luciferase cells were then dispensed using a Biotek MicroFlo instrument in each well of the compound-containing plate. The medium/cell/compound mixture was mixed with a Bravo instrument and 20 ul/well of the mixture was transferred to the anti-CD3-coated plate. The assay mixture was then incubated for 2.5 hrs at 37° C. followed by equilibration at 25° C. for 30 min. Forty microliters of One-Glo Ex (Promega) was then added to the assay mixture and luciferase activity was read on a Envision plate reader 7 minutes later.
Bioluminescence data were normalized based on maximum enhancement (1 micromolar of compound) and on basal activation (DMSO) controls. Least squares curve fittings were performed using a four-parameter variable slope nonlinear regression model. […] EC50 values from multiple experiments were averaged by geometric mean and the standard deviation was calculated.

[2] = target: T1, human DGKα (Homo sapiens, UniProt P23743); assay: DGKα Biochemical Activity Assay (ADP-Glo);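 note: recombinant enzyme converting diacylglycerol in lipid micelles with ATP, ADP formed detected by luminescence, IC50 from a four-parameter nonlinear fit, geometric mean across experiments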
T1 construct: purchased Carna Biosciences'; inferred from the same paragraph's 'obtained from Carna Biosciences')
T1 sequence (P23743 whole entry): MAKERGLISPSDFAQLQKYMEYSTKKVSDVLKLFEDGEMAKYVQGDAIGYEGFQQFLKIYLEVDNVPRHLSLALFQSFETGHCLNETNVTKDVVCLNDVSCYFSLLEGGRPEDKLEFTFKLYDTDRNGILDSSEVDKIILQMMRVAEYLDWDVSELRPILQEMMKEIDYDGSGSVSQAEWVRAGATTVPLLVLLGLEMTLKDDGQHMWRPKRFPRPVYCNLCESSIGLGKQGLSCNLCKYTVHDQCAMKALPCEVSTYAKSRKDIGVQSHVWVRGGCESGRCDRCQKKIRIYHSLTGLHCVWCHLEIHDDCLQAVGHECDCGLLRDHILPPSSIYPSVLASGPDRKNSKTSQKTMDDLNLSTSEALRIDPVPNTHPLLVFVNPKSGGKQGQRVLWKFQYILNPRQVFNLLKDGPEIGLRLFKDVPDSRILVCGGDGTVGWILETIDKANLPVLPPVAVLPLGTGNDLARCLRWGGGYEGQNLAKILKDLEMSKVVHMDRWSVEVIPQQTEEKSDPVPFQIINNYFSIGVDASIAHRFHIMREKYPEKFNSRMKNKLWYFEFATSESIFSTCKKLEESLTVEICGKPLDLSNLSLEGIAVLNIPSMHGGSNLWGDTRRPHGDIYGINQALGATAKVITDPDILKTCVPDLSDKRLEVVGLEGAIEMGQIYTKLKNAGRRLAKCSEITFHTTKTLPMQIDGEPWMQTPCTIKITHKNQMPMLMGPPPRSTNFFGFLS

| SMILES | EC50 [1] | IC50 [2] |
| --- | --- | --- |
| CC(F)(F)C1(C#Cc2cncc3c2CCCN3c2nc(=O)[nH]c3cccc(F)c23)CC1 [Example 73, 4-(5-((1-(1,1-difluoroethyl)cyclopropyl)ethynyl)-3,4-dihydro-1,7-naphthyridin-1(2H)-yl)-5-fluoroquinazolin-2(1H)-one] | 1.89 nM | 18.1 nM |
| O=c1nc(N2CCCc3c(C#CC4(C(F)(F)F)CC4)cncc32)c2c(F)c(F)ccc2[nH]1 [Example 74, 5,6-difluoro-4-(5-((1-(trifluoromethyl)cyclopropyl)ethynyl)-3,4-dihydro-1,7-naphthyridin-1(2H)-yl)quinazolin-2(1H)-one] | 0.222 nM | 2.83 nM |
| CC(F)(F)C1(C#Cc2cncc3c2CCCN3c2nc(=O)[nH]c3ccc(F)c(F)c23)CC1 [Example 76, 4-(5-((1-(1,1-difluoroethyl)cyclopropyl)ethynyl)-3,4-dihydro-1,7-naphthyridin-1(2H)-yl)-5,6-difluoroquinazolin-2(1H)-one] | 1.51 nM | 16.1 nM |
| CC(C)(C#N)C#Cc1cc(N(CC(F)F)c2nc(=O)[nH]c3ccc(F)c(F)c23)ccn1 [Example 77, 4-[4-[2,2-difluoroethyl-(5,6-difluoro-2-oxo-1H-quinazolin-4-yl)amino]-2-pyridyl]-2,2-dimethyl-but-3-ynenitrile] | 24.2 nM | 14.1 nM |
| [2H]C([2H])([2H])n1c(=O)nc(N(CC(F)F)c2ccnc(C#CC(C)(C)C#N)c2)c2c(F)c(F)ccc21 [Example 79, 4-[4-[2,2-difluoroethyl-[5,6-difluoro-2-oxo-1-(trideuteriomethyl)quinazolin-4-yl]amino]-2-pyridyl]-2,2-dimethyl-but-3-ynenitrile] | 11.3 nM | 2.95 nM |
| [2H]C([2H])([2H])n1c(=O)nc(N(CC(F)F)c2ccnc(C#CC3(C(F)(F)F)CC3)c2)c2c(F)c(F)ccc21 [Example 80, 4-[2,2-difluoroethyl-[2-[2-[1-(trifluoromethyl)cyclopropyl]ethynyl]-4-pyridyl]amino]-5,6-difluoro-1-(trideuteriomethyl)quinazolin-2-one] | 1.94 nM | 3.75 nM |
| CC(C)(O)C#Cc1cccc2c1CCCCN2c1nc(=O)[nH]c2cccc(F)c12 [Example 81, 5-fluoro-4-[6-(3-hydroxy-3-methyl-but-1-ynyl)-2,3,4,5-tetrahydro-1-benzazepin-1-yl]-1H-quinazolin-2-one] | 2.5 nM | 3.6 nM |
| CC(C)(O)C#Cc1cccc2c1OCCCN2c1nc(=O)[nH]c2cccc(F)c12 [Example 82, 5-fluoro-4-[9-(3-hydroxy-3-methyl-but-1-ynyl)-3,4-dihydro-2H-1,5-benzoxazepin-5-yl]-1H-quinazolin-2-one] | 18 nM | 4.42 nM |
| [2H]C([2H])([2H])n1c(=O)nc(N2CCCOc3c(C#CC(C)(C)O)cccc32)c2c(F)cccc21 [Example 83, 5-fluoro-4-[9-(3-hydroxy-3-methyl-but-1-ynyl)-3,4-dihydro-2H-1,5-benzoxazepin-5-yl]-1-(trideuteriomethyl)quinazolin-2-one] | 16.2 nM | 13.1 nM |
| [2H]C([2H])([2H])n1c(=O)nc(N2CCCOc3c(C#CC4(C)CC4)cccc32)c2c(F)cccc21 [Example 84, 5-fluoro-4-[9-[2-(1-methylcyclopropyl)ethynyl]-3,4-dihydro-2H-1,5-benzoxazepin-5-yl]-1-(trideuteriomethyl)quinazolin-2-one] | 0.461 nM | 3.67 nM |
| [2H]C([2H])([2H])n1c(=O)nc(N2CCCCc3c(C#CC(C)(C)O)cccc32)c2c(F)cccc21 [Example 85, 5-fluoro-4-[6-(3-hydroxy-3-methyl-but-1-ynyl)-2,3,4,5-tetrahydro-1-benzazepin-1-yl]-1-(trideuteriomethyl)quinazolin-2-one] | 4.08 nM | 3.31 nM |
| [2H]C([2H])([2H])n1c(=O)nc(N2CCCCc3c(C#CC4(C)CC4)cccc32)c2c(F)cccc21 [Example 86, 5-fluoro-4-[6-[2-(1-methylcyclopropyl)ethynyl]-2,3,4,5-tetrahydro-1-benzazepin-1-yl]-1-(trideuteriomethyl)quinazolin-2-one] | 0.133 nM | 1.13 nM |
| CC(C)(O)C#Cc1cccc2c1COCCN2c1nc(=O)[nH]c2cccc(F)c12 [Example 87, 5-fluoro-4-[6-(3-hydroxy-3-methyl-but-1-ynyl)-3,5-dihydro-2H-4,1-benzoxazepin-1-yl]-1H-quinazolin-2-one] | 30.9 nM | 9.58 nM |
| CC(C)(O)C#Cc1cccc2c1COCCN2c1nc(=O)[nH]c2ccc(F)c(F)c12 [Example 88, 5,6-difluoro-4-[6-(3-hydroxy-3-methyl-but-1-ynyl)-3,5-dihydro-2H-4,1-benzoxazepin-1-yl]-1H-quinazolin-2-one] | 21.9 nM | 4.7 nM |
| O=c1nc(N2CCOCc3c(C#CC4(C(F)(F)F)CC4)cccc32)c2c(F)c(F)ccc2[nH]1 [Example 89, 5,6-difluoro-4-[6-[2-[1-(trifluoromethyl)cyclopropyl]ethynyl]-3,5-dihydro-2H-4,1-benzoxazepin-1-yl]-1H-quinazolin-2-one] | 0.258 nM | 2.26 nM |
| CC(C)(C#N)C#Cc1cccc2c1COCCN2c1nc(=O)[nH]c2ccc(F)c(F)c12 [Example 91, 4-[1-(5,6-difluoro-2-oxo-1H-quinazolin-4-yl)-3,5-dihydro-2H-4,1-benzoxazepin-6-yl]-2,2-dimethyl-but-3-ynenitrile] | 2.67 nM | 5.24 nM |

| SMILES | EC50 [1] | IC50 [2] |
| --- | --- | --- |
| CC(C)(C#Cc1cccc2c1COCCN2c1nc(=O)[nH]c2cccc(F)c12)C(F)(F)F [Example 92, 5-fluoro-4-(6-(4,4,4-trifluoro-3,3-dimethylbut-1-yn-1-yl)-2,3-dihydrobenzo[e][1,4]oxazepin-1(5H)-yl)quinazolin-2(1H)-one] | 1.66 nM | 37.4 nM |
| CC1(C#Cc2cccc3c2COCCN3c2nc(=O)[nH]c3cccc(F)c23)COC1 [Example 93, 5-fluoro-4-(6-((3-methyloxetan-3-yl)ethynyl)-2,3-dihydrobenzo[e][1,4]oxazepin-1(5H)-yl)quinazolin-2(1H)-one] | 7.25 nM | 6.6 nM |
| [2H]C([2H])([2H])n1c(=O)nc(N2CCOCc3c(C#CC(C)(C)O)cccc32)c2c(F)cccc21 [Example 94, 5-fluoro-4-[6-(3-hydroxy-3-methyl-but-1-ynyl)-3,5-dihydro-2H-4,1-benzoxazepin-1-yl]-1-(trideuteriomethyl)quinazolin-2-one] | 16.1 nM | 7.77 nM |
| [2H]C([2H])([2H])n1c(=O)nc(N2CCOCc3c(C#CC(C)(C)C#N)cccc32)c2c(F)cccc21 [Example 95, 4-[1-[5-fluoro-2-oxo-1-(trideuteriomethyl)quinazolin-4-yl]-3,5-dihydro-2H-4,1-benzoxazepin-6-yl]-2,2-dimethyl-but-3-ynenitrile] | 2.29 nM | 2.1 nM |
| [2H]C([2H])([2H])n1c(=O)nc(N2CCOCc3c(C#CC(C)(C)O)cccc32)c2c(F)c(F)ccc21 [Example 97, 5,6-difluoro-4-[6-(3-hydroxy-3-methyl-but-1-ynyl)-3,5-dihydro-2H-4,1-benzoxazepin-1-yl]-1-(trideuteriomethyl)quinazolin-2-one] | 15.8 nM | 4.37 nM |
| [2H]C([2H])([2H])n1c(=O)nc(N2CCOCc3c(C#CC(C)(C)C#N)cccc32)c2c(F)c(F)ccc21 [Example 98, 4-[1-[5,6-difluoro-2-oxo-1-(trideuteriomethyl)quinazolin-4-yl]-3,5-dihydro-2H-4,1-benzoxazepin-6-yl]-2,2-dimethyl-but-3-ynenitrile] | 3.29 nM | 2.83 nM |
| [2H]C([2H])([2H])n1c(=O)nc(N2CCOCc3c(Br)cccc32)c2c(F)cccc21 [Example 99, 4-(6-bromo-2,3-dihydrobenzo[e][1,4]oxazepin-1(5H)-yl)-5-fluoro-1-(methyl-d3)quinazolin-2(1H)-one] | 8.22 nM | 31.2 nM |
| [2H]C([2H])([2H])n1c(=O)nc(N2CCOCc3c(C#CC4(C(F)(F)F)CC4)cccc32)c2c(F)cccc21 [Example 100, 5-fluoro-1-(methyl-d3)-4-(6-((1-(trifluoromethyl)cyclopropyl)ethynyl)-2,3-dihydrobenzo[e][1,4]oxazepin-1(5H)-yl)quinazolin-2(1H)-one] | 0.979 nM | 16.6 nM |
| [2H]C([2H])([2H])n1c(=O)nc(N2CCOCc3c(C#CC4(C)COC4)cccc32)c2c(F)cccc21 [Example 101, 5-fluoro-1-(methyl-d3)-4-(6-((3-methyloxetan-3-yl)ethynyl)-2,3-dihydrobenzo[e][1,4]oxazepin-1(5H)-yl)quinazolin-2(1H)-one] | 4.09 nM | 2.62 nM |
| O=c1nc(N2CCOCc3c(C#CC4(C(F)(F)F)CC4)cccc32)c2cc(F)cc(F)c2[nH]1 [Example 102] | 1.75 nM | 14.7 nM |
| CC(C)(O)C#Cc1cccc2c1COCCN2c1nc(=O)[nH]c2c(F)cc(F)cc12 [Example 103] | 47.4 nM | 8.98 nM |
| CC(C)(C#N)C#Cc1cccc2c1COCCN2c1nc(=O)[nH]c2c(F)cc(F)cc12 [Example 104] | 5.21 nM | 4.88 nM |
| CC1(C#Cc2cccc3c2COCCN3c2nc(=O)[nH]c3c(F)cc(F)cc23)CC1 [Example 105] | 0.85 nM | 6.96 nM |
| CC1(C#Cc2cncc3c2CCCN3c2nc(=O)[nH]c3ccc(F)c(F)c23)CC1 [Example 107, 5,6-difluoro-4-(5-((1-methylcyclopropyl)ethynyl)-3,4-dihydro-1,7-naphthyridin-1(2H)-yl)quinazolin-2(1H)-one] | 0.596 nM | 7.96 nM |
| O=c1nc(N2CCCc3c(C#CC4(C(F)F)CC4)cncc32)c2c(F)c(F)ccc2[nH]1 [Example 108, 4-(5-((1-(difluoromethyl)cyclopropyl)ethynyl)-3,4-dihydro-1,7-naphthyridin-1(2H)-yl)-5,6-difluoroquinazolin-2(1H)-one] | 1.43 nM | 6.85 nM |

— US11932634B2 (Gilead Sciences, Inc., priority 2021, dated 2024)
